The source of these data is patent US8163909B2, “Substituted hydroxyethyl amine compounds as beta-secretase modulators and methods of use” (Amgen Inc., priority 2007, dated 2012).

As a reminder, the IC50 is the concentration that gives 50% inhibition.

Experiment [1] relates to Aβ40 in conditioned medium of cells stably expressing Amyloid Precursor Protein (APP). Description: In vitro BACE cell-based assay (Aβ40 in conditioned medium, sandwich ELISA).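 Also: compounds added as a dilution series, secreted peptide quantified by europium time-resolved fluorescence readout, potency fitted from percent of control versus compound concentration.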 Conditions: Homo sapiens, HEK293, HEK cells, cell-based assay; read-out: HEK cell assay (IC50). In general terms: ELISA stands for enzyme-linked immunosorbent assay.
Experiment [2] concerns the target Beta Secretase enzyme (BACE) (Homo sapiens, UniProt P56817). Description: In vitro enzymatic BACE FRET (fluorescence resonance energy transfer) assay.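 Also: fluorescence read after 1 h with 50 nM quenched peptide substrate spanning the BACE cleavage site, in pH 4.2 acetate buffer containing 10% DMSO and nonionic detergent.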 The class given is biochemical. Particulars: BACE enzyme FRET assay; read-out: BACE1 FRET assay (IC50).

Chain of Beta Secretase enzyme (BACE) (P56817 46-501): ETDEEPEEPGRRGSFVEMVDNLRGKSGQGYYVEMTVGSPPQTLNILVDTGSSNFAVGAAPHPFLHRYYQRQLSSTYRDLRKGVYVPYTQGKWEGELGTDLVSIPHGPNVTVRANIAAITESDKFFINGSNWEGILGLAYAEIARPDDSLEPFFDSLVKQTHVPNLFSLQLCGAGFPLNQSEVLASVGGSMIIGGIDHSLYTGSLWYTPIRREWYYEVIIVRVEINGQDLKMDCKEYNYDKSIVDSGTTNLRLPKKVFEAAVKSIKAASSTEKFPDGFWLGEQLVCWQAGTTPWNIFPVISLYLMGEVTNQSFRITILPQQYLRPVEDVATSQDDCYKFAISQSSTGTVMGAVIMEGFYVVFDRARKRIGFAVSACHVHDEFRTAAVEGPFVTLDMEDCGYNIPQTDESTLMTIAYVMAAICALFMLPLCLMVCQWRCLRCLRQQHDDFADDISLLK

Turning to `CC(=O)N[C@@H](Cc1ccc(F)cc1)[C@H](O)CN[C@H]1CC2(CCC2)Oc2ccc(CC(C)(C)F)cc21` [compound 200], the figures for the IC50 in experiment [1] and in experiment [2] were 375 nM and 206 nM, respectively.

Turning to `CC(=O)N[C@@H](Cc1cccc(F)c1)[C@H](O)CN[C@H]1CC2(CCC2)Oc2ccc(CC(C)(C)F)cc21` [compound 201, N-((1S,2R)-3-(((4S)-6-(2-fluoro-2-methylpropyl)-3,4-dihydrospiro[chromene-2,1′-cyclobutan]-4-yl)amino)-1-((3-fluorophenyl)methyl)-2-hydroxypropyl)acetamide], the 50% inhibitory concentration (IC50) in experiment [1] was 76.8 nM; in experiment [2], 20.1 nM.

With `CC(=O)N[C@@H](Cc1ccccc1)[C@H](O)CN[C@H]1CC2(CCC2)Oc2ncc(CC3CC3)cc21` [compound 202], the IC50 worked out at 65.9 nM in experiment [1] and 34.2 nM in experiment [2].

As to `CC(=O)N[C@@H](Cc1cc(Br)c2c(c1)OCO2)[C@H](O)CN[C@H]1CC2(CCC2)Oc2ncc(CC(C)(C)C)cc21` [compound 203], the IC50 in experiment [1] was determined as 21.1 nM; in experiment [2], 2.84 nM.

For the compound `COCC(=O)N[C@@H](Cc1cc(Br)c2c(c1)OCO2)[C@H](O)CN[C@H]1CC2(CCC2)Oc2ncc(CC(C)(C)C)cc21` [compound 204], the 50% inhibitory concentration (IC50) is 82.4 nM in experiment [1] and 95.6 nM in experiment [2].

Turning to `CC(=O)N[C@@H](Cc1ccc2c(c1)OCCO2)[C@H](O)CN[C@H]1CC2(CCC2)Oc2ncc(CC(C)(C)C)cc21` [compound 205], the 50% inhibitory concentration (IC50) in experiment [1] and in experiment [2] was 22.9 nM in each case.

Take `COCC(=O)N[C@@H](Cc1ccc2c(c1)OCCO2)[C@H](O)CN[C@H]1CC2(CCC2)Oc2ncc(CC(C)(C)C)cc21` [compound 206]: the half-maximal inhibitory concentration (IC50) in experiment [1] was determined as 42.5 nM; in experiment [2], 22.7 nM.

With `CC(=O)N[C@@H](Cc1cc(Cl)c2c(c1)OCO2)[C@H](O)CN[C@H]1CC2(CCC2)Oc2ncc(CC(C)(C)C)cc21` [compound 207], the IC50 came to 14.2 nM in experiment [1] and 6.63 nM in experiment [2].

For `COCC(=O)N[C@@H](Cc1cc(Cl)c2c(c1)OCO2)[C@H](O)CN[C@H]1CC2(CCC2)Oc2ncc(CC(C)(C)C)cc21` [compound 208], the IC50 in experiment [1] came to 9.96 nM; in experiment [2] it was 6.41 nM.

For `CO[C@H](C)C(=O)N[C@@H](Cc1cc(Cl)c2c(c1)OCO2)[C@H](O)CN[C@H]1CC2(CCC2)Oc2ncc(CC(C)(C)C)cc21` [compound 209], the half-inhibitory concentration (IC50) in experiment [1] is 18.1 nM; in experiment [2] it was 12.2 nM.

For the compound `CO[C@H](C)C(=O)N[C@@H](Cc1cc(Br)c2c(c1)OCO2)[C@H](O)CN[C@H]1CC2(CCC2)Oc2ncc(CC(C)(C)C)cc21` [compound 210, (2R)—N-((1S,2R)-1-((7-bromo-1,3-benzodioxol-5-yl)methyl)-3-(((4′S)-6′-(2,2-dimethylpropyl)-3′,4′-dihydrospiro[cyclobutane-1,2′-pyrano[2,3-b]pyridin]-4′-yl)amino)-2-hydroxypropyl)-2-(methyloxy)propanamide], the IC50 in experiment [1] was 224 nM; in experiment [2] it was 163 nM.

Regarding `COCC(=O)N[C@@H](Cc1cc(Br)c2c(c1)OCO2)[C@H](O)CN[C@H]1CC2(CCC2)Oc2ncc(CC(C)(C)F)cc21` [compound 211], the results for the IC50 in experiment [1] and in experiment [2] were 312 nM and 423 nM, respectively.

Turning to `COCC(=O)N[C@@H](Cc1ccc(Cl)cc1)[C@H](O)CN[C@H]1CC2(CCC2)Oc2ncc(CC(C)(C)C)cc21` [compound 212], the IC50 in experiment [1] came out at 31.4 nM; in experiment [2], 2.15 nM.

As for `COCC(=O)N[C@@H](CC1CC1)[C@H](O)CN[C@H]1CC2(CCC2)Oc2ncc(CC(C)(C)C)cc21` [compound 213], the IC50 in experiment [1] was determined as 78.7 nM; in experiment [2], 57 nM.

Turning to `COCC(=O)N[C@@H](Cc1ccc(F)c(OC(F)F)c1)[C@H](O)CN[C@H]1CC2(CCC2)Oc2ncc(CC(C)(C)C)cc21` [compound 214], the IC50 in experiment [1] was 9.03 nM; in experiment [2] it was 8.77 nM.

`CC(=O)N[C@@H](Cc1ccc(F)c(Cl)c1)[C@H](O)CN[C@H]1CC2(CCC2)Oc2ncc(CC(C)(C)C(F)F)cc21` [compound 215]: the half-inhibitory concentration (IC50) in experiment [1] was determined as 26.4 nM; in experiment [2], 7.05 nM.

Regarding `COc1cc(C[C@H](NC(C)=O)[C@H](O)CN[C@H]2CC3(CCC3)Oc3ncc(CC(C)(C)C(F)F)cc32)ccc1Cl` [compound 216], the values for the half-inhibitory concentration (IC50) in experiment [1] and in experiment [2] were 24.9 nM and 16 nM, respectively.

For `CC(=O)N[C@@H](Cc1cccc(F)c1)[C@H](O)CN[C@H]1CC2(CCC2)Oc2ncc(CC(C)(C)C(F)F)cc21` [compound 217], the IC50 in experiment [1] is 2.98 nM; in experiment [2], 2.92 nM.

With `COCC(=O)N[C@@H](Cc1cccc(F)c1)[C@H](O)CN[C@H]1CC2(CCC2)Oc2ncc(CC(C)(C)C(F)F)cc21` [compound 218], the IC50 in experiment [1] stood at 5.25 nM; in experiment [2] it was 4.38 nM.

`CO[C@H](C)C(=O)N[C@@H](Cc1cccc(F)c1)[C@H](O)CN[C@H]1CC2(CCC2)Oc2ncc(CC(C)(C)C(F)F)cc21` [compound 219]: the concentration for half-maximal inhibition (IC50) in experiment [1] was 5.99 nM; in experiment [2] it was 5.08 nM.

For the compound `CC(=O)N[C@@H](Cc1cccc(F)c1)[C@H](O)CN[C@H]1CC2(CCC2)Oc2c(F)cc(CC(C)(C)C)cc21` [compound 220], the concentration for half-maximal inhibition (IC50) in experiment [1] is 11.6 nM; in experiment [2] it was 4.05 nM.

On to `COCC(=O)N[C@@H](Cc1cccc(F)c1)[C@H](O)CN[C@H]1CC2(CCC2)Oc2c(F)cc(CC(C)(C)C)cc21` [compound 221], for which the results for the IC50 in experiment [1] and in experiment [2] were 44.4 nM and 13.7 nM, respectively.

As to `CO[C@H](C)C(=O)N[C@@H](Cc1cccc(F)c1)[C@H](O)CN[C@H]1CC2(CCC2)Oc2c(F)cc(CC(C)(C)C)cc21` [compound 222], the 50% inhibitory concentration (IC50) in experiment [1] is 12.7 nM; in experiment [2] it was 4.45 nM.

In the case of `CC(=O)N[C@@H](Cc1ccnc(OCC(F)F)c1)[C@H](O)CN[C@H]1CC2(CCC2)Oc2c(F)cc(CC(C)(C)C)cc21` [compound 223], the IC50 in experiment [1] stood at 29.8 nM; in experiment [2] it was 9.69 nM.

For `CC(=O)N[C@@H](Cc1cc(F)cc(F)c1)[C@H](O)CN[C@H]1CC2(CCC2)Oc2c(F)cc(CC(C)(C)C)cc21` [compound 224], the IC50 in experiment [1] was found to be 19.3 nM; in experiment [2], 4.67 nM.

For the compound `CC(=O)N[C@@H](Cc1ccc(Cl)c(F)c1)[C@H](O)CN[C@H]1CC2(CCC2)Oc2ncc(CC(C)(C)C(F)F)cc21` [compound 225], the IC50 in experiment [1] was found to be 23.9 nM; in experiment [2] it was 9.22 nM.

As to `CC(=O)N[C@@H](Cc1cc(F)cc(F)c1)[C@H](O)CN[C@H]1CC2(CCC2)Oc2ncc(CC(C)(C)C(F)F)cc21` [compound 226], the IC50 was determined as 5.27 nM in experiment [1] and 4.15 nM in experiment [2].

As for `CO[C@H](C)C(=O)N[C@@H](Cc1ccc(Cl)c(F)c1)[C@H](O)CN[C@H]1CC2(CCC2)Oc2ncc(CC(C)(C)C(F)F)cc21` [compound 227], the results for the IC50 in experiment [1] and in experiment [2] were 31.4 nM and 15.1 nM, respectively.

For the compound `CO[C@H](C)C(=O)N[C@@H](Cc1cc(F)cc(F)c1)[C@H](O)CN[C@H]1CC2(CCC2)Oc2ncc(CC(C)(C)C(F)F)cc21` [compound 228], the values for the half-inhibitory concentration (IC50) in experiment [1] and in experiment [2] were 7.56 nM and 6.15 nM, respectively.

Turning to `COCC(=O)N[C@@H](Cc1ccc(F)cc1)[C@H](O)CN[C@H]1CC2(CCC2)Oc2c(F)cc(CC(C)(C)C)cc21` [compound 229], the IC50 in experiment [1] turned out to be 85.5 nM; in experiment [2] it was 8.19 nM.
